Measurements reported in patent US4349667A, “Aminoglycoside antibiotic G-367-2” (Toyo Jozo Kabushiki Kaisha, priority 1979, dated 1982).
Values after ≈ are worked out from the molar mass of the structure shown.

Columns and labels:
Type in all cases: cell-based
[1] = test system: Gram negative bacteria; assay: antibacterial effect against Gram negative bacteria
Description: (§1) The antimicrobial spectrum (minimum inhibitory concentration, MIC) of G-367-2 by agar dilution method is as follows: […]

[2] = test system: Serratia marcescens; assay: antimicrobial spectrum (MIC) by agar dilution method; conditions: read-out: minimum inhibitory concentration, MIC
Description: as §1

[3] = test system: Staphylococcus aureus 0119; assay: as above; conditions: read-out: minimum inhibitory concentration, MIC
Description: as §1

[4] = test system: Klebsiella pneumonia ATC 10031; assay: as above; conditions: Klebsiella pneumoniae, ATC10031, read-out: minimum inhibitory concentration, MIC
Description: as §1

[5] = test system: Bacillus subtilis ATCC 6633; assay: as above; conditions: ATCC6633, read-out: minimum inhibitory concentration, MIC
Description: as §1

[6] = test system: Staphylococcus aureus ATCC 6538P; assay: as above; conditions: ATCC6538P, read-out: minimum inhibitory concentration, MIC
Description: as §1

[7] = test system: Shigella sonnei E33; assay: as above; conditions: read-out: minimum inhibitory concentration, MIC
Description: as §1

[8] = test system: Pseudomonas aeruginosa 2512; assay: as above; conditions: read-out: minimum inhibitory concentration, MIC
Description: as §1

[9] = test system: Pseudomonas aeruginosa ML4561 Rms166; assay: as above; conditions: ML4561RMS166, read-out: minimum inhibitory concentration, MIC
Description: as §1

[10] = test system: Pseudomonas aeruginosa ML4561 RP4; assay: as above; conditions: ML4561RP4, read-out: minimum inhibitory concentration, MIC
Description: as §1

[11] = test system: Streptococcus pyogenes N.Y.5; assay: as above; conditions: read-out: minimum inhibitory concentration, MIC
Description: as §1

[12] = test system: Pseudomonas aeruginosa ML4561; assay: as above; conditions: ML4561, read-out: minimum inhibitory concentration, MIC
Description: as §1

[13] = test system: Enterobacter aerogenes 0655; assay: as above; conditions: Klebsiella aerogenes, read-out: minimum inhibitory concentration, MIC
Description: as §1

[14] = test system: Escherichia coli NIHJ-JC2; assay: as above; conditions: NIHJJC2, read-out: minimum inhibitory concentration, MIC
Description: as §1

[15] = test system: Pseudomonas maltophilia 1850; assay: as above; conditions: Stenotrophomonas maltophilia, read-out: minimum inhibitory concentration, MIC
Description: as §1

[16] = test system: Proteus morganii 0239; assay: as above; conditions: Morganella morganii, read-out: minimum inhibitory concentration, MIC
Description: as §1

[17] = test system: Escherichia coli W3630 RGN14; assay: as above; conditions: W3630RGN14, read-out: minimum inhibitory concentration, MIC
Description: as §1

[18] = test system: Proteus rettgeri ACR; assay: as above; conditions: Providencia rettgeri, read-out: minimum inhibitory concentration, MIC
Description: as §1

[19] = test system: Pseudomonas aeruginosa IAM1095; assay: as above; conditions: read-out: minimum inhibitory concentration, MIC
Description: as §1

[20] = test system: Pseudomonas aeruginosa 1946; assay: as above; conditions: read-out: minimum inhibitory concentration, MIC
Description: as §1

[21] = test system: Pseudomonas putida 1842; assay: as above; conditions: read-out: minimum inhibitory concentration, MIC
Description: as §1

[22] = test system: Staphylococcus aureus MS 27; assay: as above; conditions: MS27, read-out: minimum inhibitory concentration, MIC
Description: as §1

[23] = test system: Staphylococcus epidermidis sp-al-1; assay: as above; conditions: SPAL1, read-out: minimum inhibitory concentration, MIC
Description: as §1

[24] = test system: Pseudomonas aeruginosa ML4561 Rms164-1; assay: as above; conditions: ML4561RMS1641, read-out: minimum inhibitory concentration, MIC
Description: as §1

[25] = test system: Salmonella enteritidis Gartner; assay: as above; conditions: Salmonella enterica, read-out: minimum inhibitory concentration, MIC
Description: as §1

[26] = test system: Enterobacter cloacae GN336; assay: as above; conditions: read-out: minimum inhibitory concentration, MIC
Description: as §1

[27] = test system: Escherichia coli W3630; assay: as above; conditions: read-out: minimum inhibitory concentration, MIC
Description: as §1

[28] = test system: Citrobacter freundii GN346; assay: as above; conditions: GN346, read-out: minimum inhibitory concentration, MIC
Description: as §1

## CNC1C(O)C(OC2C(N)CC(N)C(OC3OC(CN)=CCC3N)C2O)OCC1(C)O (stereo not shown) [G-367-2]
[1]
  antibacterial effect: strong antibacterial effect
[2]
  MIC: 50 µg/mL (≈ 112 µM)
[3]
  MIC: 12.5 µg/mL (≈ 27.9 µM)
[4]
  MIC: 1.6 µg/mL (≈ 3.58 µM)
[5]
  MIC: 1.6 µg/mL (≈ 3.58 µM)
[6]
  MIC: 12.5 µg/mL (≈ 27.9 µM)
[7]
  MIC: 3.1 µg/mL (≈ 6.93 µM)
[8]
  MIC: > 100 µg/mL
[9]
  MIC: > 100 µg/mL
[10]
  MIC: 6.3 µg/mL (≈ 14.1 µM)
[11]
  MIC: 6.3 µg/mL (≈ 14.1 µM)
[12]
  MIC: 125 µg/mL (≈ 279 µM)
[13]
  MIC: 1.6 µg/mL (≈ 3.58 µM)
[14]
  MIC: 3.1 µg/mL (≈ 6.93 µM)
[15]
  MIC: > 100 µg/mL
[16]
  MIC: 6.3 µg/mL (≈ 14.1 µM)
[17]
  MIC: 1.6 µg/mL (≈ 3.58 µM)
[18]
  MIC: 3.1 µg/mL (≈ 6.93 µM)
[19]
  MIC: 25 µg/mL (≈ 55.9 µM)
[20]
  MIC: > 100 µg/mL
[21]
  MIC: > 100 µg/mL
[22]
  MIC: 12.5 µg/mL (≈ 27.9 µM)
[23]
  MIC: 1.6 µg/mL (≈ 3.58 µM)
[24]
  MIC: 50 µg/mL (≈ 112 µM)
[25]
  MIC: 3.1 µg/mL (≈ 6.93 µM)
[26]
  MIC: 1.6 µg/mL (≈ 3.58 µM)
[27]
  MIC: 1.6 µg/mL (≈ 3.58 µM)
[28]
  MIC: 3.1 µg/mL (≈ 6.93 µM)
